Laboratory results taken from ChEMBL document CHEMBL5352410, “Discovery of novel selenium-containing azole derivatives as antifungal agents by exploiting the hydrophobic cleft of CYP51” (Eur J Med Chem, 2022).
Converted amounts (≈) assume the structure as drawn.

Key:
Candida albicans [1] = assay: Antifungal activity against FCZ-resistant Candida albicans 904 by CLSI based broth microdilution method; assay type: functional
Candida albicans [2] = assay: Antifungal activity against FCZ-resistant Candida albicans 632 by CLSI based broth microdilution method; assay type: functional
Candida albicans [3] = assay: Antifungal activity against FCZ-resistant Candida albicans 901 by CLSI based broth microdilution method; assay type: functional
Candida albicans [4] = assay: Fungicidal activity against FCZ-resistant Candida albicans 17#; assay type: functional
Candida albicans [5] = assay: Fungicidal activity against FCZ-resistant Candida albicans 904; assay type: functional
Candida albicans [6] = assay: Antifungal activity against FCZ-resistant Candida albicans 17# by CLSI based broth microdilution method; assay type: functional
Candida albicans [7] = assay: Fungicidal activity against FCZ-resistant Candida albicans 632; assay type: functional
Candida albicans [8] = assay: Fungicidal activity against FCZ-resistant Candida albicans CaR; assay type: functional
Candida albicans [9] = assay: Antifungal activity against FCZ-resistant Candida albicans CaR by CLSI based broth microdilution method; assay type: functional
Candida albicans [10] = assay: Fungicidal activity against FCZ-resistant Candida albicans 901; assay type: functional
Candida albicans [11] = assay: Fungicidal activity against Candida albicans sc5314; assay type: functional
Candida albicans [12] = assay: Fungicidal activity against Candida albicans; assay type: functional
[13] = Cytotoxicity against human HL-60 cells by MTT assay; assay type: toxicity, cell-based
[14] = Cytotoxicity against human PC-3 cells by MTT assay; assay type: toxicity, cell-based
Candida albicans [15] = assay: Antibiofilm activity against Candida albicans SC5314 assessed as sessile minimum inhibitory concentration measured after 24 hrs by XTT assay; assay type: functional
Candida albicans [16] = assay: Antibiofilm activity against Candida albicans SC5314 assessed as sessile minimum inhibitory concentration measured after 1.5 hrs by XTT assay; assay type: functional
Cryptococcus neoformans = assay: Antifungal activity against Cryptococcus neoformans by CLSI based broth microdilution method; assay type: functional
[17] = Cytotoxicity against human MDA-MB-231 cells by MTT assay; assay type: toxicity, cell-based
Aspergillus fumigatus = assay: Antifungal activity against Aspergillus fumigatus by CLSI based broth microdilution method; assay type: functional
Candida albicans [18] = assay: Antibiofilm activity against Candida albicans SC5314 assessed as sessile minimum inhibitory concentration measured after 6 hrs by XTT assay; assay type: functional
[Candida] zeylanoides = Antifungal activity against Candida zeylanoides by CLSI based broth microdilution method; assay type: functional; conditions: Dujonia zeylanoides
Pichia kudriavzevii = assay: Antifungal activity against Pichia kudriavzevii by CLSI based broth microdilution method; assay type: functional
Candida albicans [19] = assay: Antibiofilm activity against Candida albicans SC5314 assessed as sessile minimum inhibitory concentration measured after 3 hrs by XTT assay; assay type: functional
Candida albicans [20] = assay: Antibiofilm activity against Candida albicans CPCC400616 assessed as sessile minimum inhibitory concentration measured after 3 hrs by XTT assay; assay type: functional
Nakaseomyces glabratus = assay: Antifungal activity against Candida glabrata by CLSI based broth microdilution method; assay type: functional
Candida albicans [21] = assay: Antifungal activity against Candida albicans by CLSI based broth microdilution method; assay type: functional
Candida albicans [22] = assay: Antibiofilm activity against Candida albicans CPCC400616 assessed as sessile minimum inhibitory concentration measured after 1.5 hrs by XTT assay; assay type: functional
Candida albicans [23] = assay: Antibiofilm activity against Candida albicans CPCC400616 assessed as sessile minimum inhibitory concentration measured after 24 hrs by XTT assay; assay type: functional
Candida albicans [24] = assay: Antifungal activity against Candida albicans sc5314 by CLSI based broth microdilution method; assay type: functional
Candida parapsilosis = assay: Antifungal activity against Candida parapsilosis by CLSI based broth microdilution method; assay type: functional; conditions: Lodderomyces parapsilosis
Candida albicans [25] = assay: Antibiofilm activity against Candida albicans CPCC400616 assessed as sessile minimum inhibitory concentration measured after 6 hrs by XTT assay; assay type: functional
[26] = Metabolic stability in mouse liver microsome assessed as half life; assay type: ADME; conditions: liver microsomes
[27] = Metabolic stability in mouse liver microsome assessed as clearance; assay type: ADME; conditions: liver microsomes, read-out: CLH

Row | Compound | MIC (Candida albicans [1]) | MIC (Candida albicans [2]) | MIC (Candida albicans [3]) | MFC (Candida albicans [4]) | MFC (Candida albicans [5]) | MIC (Candida albicans [6]) | MFC (Candida albicans [7]) | MFC (Candida albicans [8]) | MIC (Candida albicans [9]) | MFC (Candida albicans [10]) | MFC (Candida albicans [11]) | MFC (Candida albicans [12]) | IC50 [13] | IC50 [14] | MIC50 (Candida albicans [15]) | MIC80 (Candida albicans [15]) | MIC50 (Candida albicans [16]) | MIC80 (Candida albicans [16]) | IC50 [17] | MIC50 (Candida albicans [18]) | other results
1 | Fc1ccc(C(Cn2ccnc2)[Se][Se]C(Cn2ccnc2)c2ccc(F)cc2)cc1 (stereo not drawn) | 64 µg/mL (≈ 119 µM) | 64 µg/mL (≈ 119 µM) | 16 µg/mL (≈ 29.8 µM) | > 64 µg/mL | 64 µg/mL (≈ 119 µM) | 32 µg/mL (≈ 59.7 µM) | > 64 µg/mL | > 64 µg/mL | 4 µg/mL (≈ 7.46 µM) | 32 µg/mL (≈ 59.7 µM) | > 64 µg/mL | > 64 µg/mL | – | – | – | – | – | – | – | – | –
2 | COc1cccc2c1C(=O)c1c(O)c3c(c(O)c1C2=O)C[C@@](O)(C(=O)CO)C[C@@H]3O[C@H]1C[C@H](N)[C@H](O)[C@H](C)O1 [DOXORUBICIN] | – | – | – | – | – | – | – | – | – | – | – | – | < 0.125 µM | – | – | – | – | – | – | – | –
3 | CC(=O)O[C@H]1C(=O)[C@@]2(C)[C@H]([C@H](OC(=O)c3ccccc3)[C@]3(O)C[C@H](OC(=O)[C@H](O)[C@@H](NC(=O)c4ccccc4)c4ccccc4)C(C)=C1C3(C)C)[C@]1(OC(C)=O)CO[C@@H]1C[C@@H]2O [PACLITAXEL] | – | – | – | – | – | – | – | – | – | – | – | – | – | < 0.025 µM | – | – | – | – | – | – | –
4 | Cc1ccc(C(Cn2ccnc2)[Se]C(Cn2ccnc2)c2ccc(C)cc2)cc1 (stereo not drawn) | 4 µg/mL (≈ 8.9 µM) | 4 µg/mL (≈ 8.9 µM) | 4 µg/mL (≈ 8.9 µM) | > 64 µg/mL | 8 µg/mL (≈ 17.8 µM) | 0.5 µg/mL (≈ 1.11 µM) | 8 µg/mL (≈ 17.8 µM) | > 64 µg/mL | 2 µg/mL (≈ 4.45 µM) | 8 µg/mL (≈ 17.8 µM) | 16 µg/mL (≈ 35.6 µM) | 64 µg/mL (≈ 142 µM) | 8.13 µM | 1.11 µM | 2 µg/mL (≈ 4.45 µM) | 4 µg/mL (≈ 8.9 µM) | 1 µg/mL (≈ 2.22 µM) | 4 µg/mL (≈ 8.9 µM) | 4.21 µM | 1 µg/mL (≈ 2.22 µM) | MIC (Cryptococcus neoformans): 32 µg/mL (≈ 71.2 µM); MIC (Aspergillus fumigatus): > 64 µg/mL; MIC80 (Candida albicans [18]): 4 µg/mL (≈ 8.9 µM); MIC ([Candida] zeylanoides): 2 µg/mL (≈ 4.45 µM); MIC (Pichia kudriavzevii): 16 µg/mL (≈ 35.6 µM); MIC50 (Candida albicans [19]): 1 µg/mL (≈ 2.22 µM); MIC80 (Candida albicans [19]): 4 µg/mL (≈ 8.9 µM); MIC50 (Candida albicans [20]): 2 µg/mL (≈ 4.45 µM); MIC80 (Candida albicans [20]): 8 µg/mL (≈ 17.8 µM); MIC (Nakaseomyces glabratus): 16 µg/mL (≈ 35.6 µM); MIC (Candida albicans [21]): 4 µg/mL (≈ 8.9 µM); MIC50 (Candida albicans [22]): 1 µg/mL (≈ 2.22 µM); MIC80 (Candida albicans [22]): 4 µg/mL (≈ 8.9 µM); MIC50 (Candida albicans [23]): 4 µg/mL (≈ 8.9 µM); MIC80 (Candida albicans [23]): 16 µg/mL (≈ 35.6 µM); MIC (Candida albicans [24]): 4 µg/mL (≈ 8.9 µM); MIC (Candida parapsilosis): 4 µg/mL (≈ 8.9 µM); MIC50 (Candida albicans [25]): 2 µg/mL (≈ 4.45 µM); MIC80 (Candida albicans [25]): 8 µg/mL (≈ 17.8 µM)
5 | Clc1ccc(C(Cn2ccnc2)[Se][Se]C(Cn2ccnc2)c2ccc(Cl)cc2)cc1 (stereo not drawn) | 8 µg/mL (≈ 14.1 µM) | 4 µg/mL (≈ 7.03 µM) | 1 µg/mL (≈ 1.76 µM) | > 64 µg/mL | 8 µg/mL (≈ 14.1 µM) | 8 µg/mL (≈ 14.1 µM) | 8 µg/mL (≈ 14.1 µM) | > 64 µg/mL | 2 µg/mL (≈ 3.51 µM) | 4 µg/mL (≈ 7.03 µM) | 32 µg/mL (≈ 56.2 µM) | 64 µg/mL (≈ 112 µM) | 12.5 µM | 2.91 µM | 0.5 µg/mL (≈ 0.878 µM) | 16 µg/mL (≈ 28.1 µM) | 0.5 µg/mL (≈ 0.878 µM) | 4 µg/mL (≈ 7.03 µM) | 5.5 µM | 0.5 µg/mL (≈ 0.878 µM) | MIC80 (Candida albicans [18]): 4 µg/mL (≈ 7.03 µM); MIC50 (Candida albicans [19]): 0.5 µg/mL (≈ 0.878 µM); MIC80 (Candida albicans [19]): 4 µg/mL (≈ 7.03 µM); MIC50 (Candida albicans [20]): 0.5 µg/mL (≈ 0.878 µM); MIC80 (Candida albicans [20]): 4 µg/mL (≈ 7.03 µM); MIC50 (Candida albicans [22]): 0.5 µg/mL (≈ 0.878 µM); MIC80 (Candida albicans [22]): 2 µg/mL (≈ 3.51 µM); half-life [26]: 24.4 min; MIC50 (Candida albicans [23]): 32 µg/mL (≈ 56.2 µM); MIC80 (Candida albicans [23]): 128 µg/mL (≈ 225 µM); MIC50 (Candida albicans [25]): 2 µg/mL (≈ 3.51 µM); MIC80 (Candida albicans [25]): 32 µg/mL (≈ 56.2 µM); CLint scaled [27]: 25.4 mL/min/kg
6 | Fc1ccc(C(Cn2ccnc2)[Se][Se]C(Cn2ccnc2)c2ccc(F)cc2F)c(F)c1 (stereo not drawn) | 8 µg/mL (≈ 14 µM) | 8 µg/mL (≈ 14 µM) | 4 µg/mL (≈ 6.99 µM) | > 64 µg/mL | 8 µg/mL (≈ 14 µM) | 8 µg/mL (≈ 14 µM) | 16 µg/mL (≈ 28 µM) | > 64 µg/mL | 4 µg/mL (≈ 6.99 µM) | 8 µg/mL (≈ 14 µM) | 16 µg/mL (≈ 28 µM) | 32 µg/mL (≈ 55.9 µM) | – | – | – | – | – | – | – | – | –
